Test results reported in patent US20160257957A1, “METHODS AND COMPOSITIONS FOR TREATMENT OF ANGELMAN SYNDROME AND AUTISM SPECTRUM DISORDERS” (PRESIDENT AND FELLOWS OF HARVARD COLLEGE, priority 2010, published 2016).
Where a SMILES comes first, the peptide text is derived from it. The star is where a group is joined. Cbz = O=C(OCc1ccccc1)*

Columns and labels:
[1] = system: Arc; conditions: literature; cited from earlier work
[2] = system: Ube3A-mediated degradation of Arc; assay: Ube3A-mediated degradation of Arc in transfected HEK293T cells (Western blot); format: cell-based; conditions: HEK293T cells transfected with Arc and Ube3A; MG132 10 μM
Description: (FIG. 9A) Western blot analysis of protein lysates made from brains of wild type and Ube3A knockout mice two hours following kainate acid injection. Immunoprecipitations were performed with an anti-Ube3A antibody and blotted with an anti-Arc antibody to reveal co-immunoprecipitated Arc. Images presented are representative of experiments performed on four independent sets of wildtype and Ube3A knockout mice. (FIG. 9B) Protein lysates were prepared from HEK293T cells transfected with Myc-Arc and HA-tagged ubiquitin and the indicated constructs and then treated with either vehicle control or the proteasome inhibitor MG132 ([…]). Arc was then immunoprecipitated using the anti-Myc antibody 9E10, and Western blot analysis was performed using an anti-Arc antibody to reveal both non-ubiquitinated and ubiquitinated forms of Arc. (FIG. 9C) Mass spectrometric peaks reveal that Ube3A catalyzes the ubiquitination of Arc on lysine 269. […] SEQ ID NO:5 is KGGEFLQYSEGTLSR(SEQ ID NO: 5) shown. Note the presence of two glycine residues covalently linked to the first lysine of this peptide which is indicative of ubiquitin being attached to that specific residue. […] Additional data not pictured here reveal the presence of ubiquitinated lysine 268 as well. […] SEQ ID NO: 6 is LIFAGKGGQLEDGR (SEQ ID NO: 6) shown in upper panel of FIG. 9D. […]

[3] = target: T1, mGluR5 (Mus musculus, UniProt Q3UVX5); conditions: mouse model of FXS, injection; cited from earlier work
T1 construct: host or cells: mouse model of Fragile X syndrome (in vivo)
T1 sequence (Q3UVX5 19-1203): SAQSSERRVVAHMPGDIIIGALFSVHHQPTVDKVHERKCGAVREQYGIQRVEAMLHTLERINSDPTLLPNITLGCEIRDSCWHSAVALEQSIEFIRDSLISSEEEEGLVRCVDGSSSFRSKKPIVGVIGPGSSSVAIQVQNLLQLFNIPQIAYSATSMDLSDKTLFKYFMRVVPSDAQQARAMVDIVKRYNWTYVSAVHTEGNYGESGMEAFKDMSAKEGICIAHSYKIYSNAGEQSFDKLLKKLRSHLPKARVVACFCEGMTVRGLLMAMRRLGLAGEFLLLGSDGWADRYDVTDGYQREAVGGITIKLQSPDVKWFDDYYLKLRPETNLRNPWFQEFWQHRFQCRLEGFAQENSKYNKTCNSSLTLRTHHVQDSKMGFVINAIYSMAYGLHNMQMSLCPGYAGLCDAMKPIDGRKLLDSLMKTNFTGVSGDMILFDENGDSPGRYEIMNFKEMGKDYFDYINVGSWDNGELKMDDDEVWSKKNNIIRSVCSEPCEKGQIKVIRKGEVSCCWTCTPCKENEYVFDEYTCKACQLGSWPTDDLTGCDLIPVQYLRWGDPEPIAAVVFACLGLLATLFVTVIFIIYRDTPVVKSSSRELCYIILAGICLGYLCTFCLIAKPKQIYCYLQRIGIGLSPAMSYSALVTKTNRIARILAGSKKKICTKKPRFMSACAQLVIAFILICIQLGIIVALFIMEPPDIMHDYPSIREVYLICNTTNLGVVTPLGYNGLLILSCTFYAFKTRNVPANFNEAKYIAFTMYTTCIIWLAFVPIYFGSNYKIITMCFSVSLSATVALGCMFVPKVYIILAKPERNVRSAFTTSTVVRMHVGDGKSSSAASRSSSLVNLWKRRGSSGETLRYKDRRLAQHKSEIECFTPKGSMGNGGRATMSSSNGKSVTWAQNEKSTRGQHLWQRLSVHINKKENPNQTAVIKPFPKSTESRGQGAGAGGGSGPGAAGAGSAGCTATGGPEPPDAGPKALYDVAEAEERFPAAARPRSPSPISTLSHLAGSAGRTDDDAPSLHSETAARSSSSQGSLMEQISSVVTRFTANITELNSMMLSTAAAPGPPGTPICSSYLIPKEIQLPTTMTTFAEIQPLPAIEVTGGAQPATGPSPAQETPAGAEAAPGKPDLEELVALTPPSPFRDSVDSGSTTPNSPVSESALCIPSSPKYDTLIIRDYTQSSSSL

[4] = system: muscarinic acetylcholine receptors (mAChR); conditions: literature; cited from earlier work
[5] = system: Ube3A; assay: Kainate-induced seizures: Ube3A mRNA and protein in mouse hippocampus; format: in vivo, mice; conditions: kainate-induced seizures vs control
Description: FIGS. 8A-8G show regulation of Ube3A mRNA and protein by neuronal activity. (FIG. 8A) Real-time PCR analysis of Ube3A mRNA extracted from hippocampal neurons at E18+10 DIV treated for six hours with the indicated agent. Data are means+/−SEM from three independent experiments. * indicates statistical significance in pairwise comparison to control: P<0.01 T-test. (FIG. 8B) Quantitative Western blot analysis of Ube3A protein. Protein lysates were collected from hippocampal neurons at E18+8 DIV following treatment with the indicated agent for seven hours. This experiment was performed three times independently and the data were normalized to the control and are presented as means+/−SEM. * indicates P<0.01, # indicates P<0.05 in analysis of statistical significance in pairwise comparison to control by T-test. (FIG. 8C) Quantitative Western blot analysis of Ube3A protein. […] (FIG. 8E) Quantitative Western blot analysis of Ube3A protein from mice 2.5 hours after injection with saline (ctl) or kainic acid (seized) to induce seizures. […] (FIG. 8F) Quantitative Western blot analysis of Ube3A protein from mice housed in standard laboratory cages (control) or placed in cages with novel objects (enriched) for 2.5 hours. […]
Quantitative Real-Time PCR was carried out following standard procedures. […]

C[C@@H](CO)CCC[C@@H](C)[C@H]1CC[C@H]2[C@@H]3CC=C4C[C@@H](O)CC[C@]4(C)[C@H]3CC[C@]12C [27-hydroxycholesterol]
ARC expression [1]: specifically decreased

O=S(=O)(NCCNC/C=C/c1ccc(Br)cc1)c1cccc2cnccc12 [H89]
ARC expression [1]: induction of ARC expression

CC(C)C[C@@H](C=O)NC(=O)[C@H](CC(C)C)NC(=O)[C@H](CC(C)C)NC(=O)OCc1ccccc1 [MG132] (Cbz-Leu-Leu-Leu-aldehyde)
Ube3A-mediated degradation of Arc [2]: blocked Ube3A-mediated degradation of Arc

Cc1cccc(C#Cc2ccccc2)n1 [MPEP, 2-methyl-6-(phenylethynyl)-pyridine]
surface expression of AMPARs [3]: restored surface expression of AMPARs | symptoms associated with FXS [3]: prevented the symptoms associated with FXS

CN1[C@@H]2CC[C@H]1C[C@@H](OC(=O)C(CO)c1ccccc1)C2 (stereo partly drawn) [atropine]
mAChR-induced expression of ARC [4]: can be inhibited

C=C(C)[C@H]1CN[C@H](C(=O)O)[C@H]1CC(=O)O [kainate, kainic acid]
Ube3A mRNA level ([5]; mouse hippocampus): increased | Ube3A protein level ([5]; mouse): increased

insulin: insulin
ARC expression [1]: increased
